Measured values as given in patent US12599136B2, “Substituted isophthalic acid diamides and their use as herbicides” (Bayer Aktiengesellschaft, priority 2020, dated 2026).

What was measured:
Assay type in all cases: in vivo
Echinochloa crus-galli [1] = test: Pre-emergence herbicidal action against ECHCG; conditions: 80 g/ha; visual score after 3 weeks vs untreated controls
Outline: (§1)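 Seeds sown in sandy loam, soil-covered; compound sprayed on soil surface pre-emergence. Application: WP/EC, 600–800 l/ha, 0.2% wetting agent. Readout: visual % damage at 3 weeks.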

Lolium rigidum = test: Pre-emergence herbicidal action against LOLRI; conditions: 80 g/ha
Text: (§2) Seeds of monocotyledonous and dicotyledonous weed plants and crop plants are laid out in sandy loam soil in wood-fiber pots and covered with soil. The compounds of the invention, formulated in the form of wettable powders (WP) or as emulsion concentrates (EC), are then applied to the surface of the covering soil in the form of an aqueous suspension or emulsion at a water application rate equivalent to 600 to 800 l/ha, with addition of 0.2% wetting agent. After the treatment, the pots are placed in a greenhouse and kept under good growth conditions for the trial plants. The damage to the test plants is scored visually after a test period of 3 weeks by comparison with untreated controls (herbicidal activity in percent (%): 100% activity=the plants have died, 0% activity=like control plants). […] The tables below illustrate, in an illustrative manner, the post-emergence herbicidal action of the compounds of the invention, the herbicidal activity being stated in percent.

Pharbitis purpurea = test: Post-emergence herbicidal action against PHBPU; conditions: 20 g/ha, visual assessment about 3 weeks after treatment
Outline: (§3)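 Percent herbicidal action is rated by eye about 3 weeks after treatment against untreated controls, where 100% means dead plants and 0% means like controls. Plants in sandy loam are sprayed on green parts at the one-leaf stage with aqueous WP or EC preparations at 600 to 800 l/ha plus 0.2% wetting agent.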

Polygonum convolvulus = test: Pre-emergence herbicidal action against POLCO; conditions: 80 g/ha
Text: as §2

Viola tricolor [2] = test: Post-emergence herbicidal action against VIOTR
Outline: as §3

Amaranthus retroflexus [3] = test: Post-emergence herbicidal action against AMARE; conditions: visual assessment about 3 weeks after treatment
Outline: as §3

Abutilon theophrasti [4] = test: Pre-emergence herbicidal action against ABUTH; conditions: visual score after 3 weeks vs untreated controls
Outline: as §1

Setaria viridis [5] = test: Post-emergence herbicidal action against SETVI; conditions: visual assessment about 3 weeks after treatment
Outline: as §3

Alopecurus myosuroides [6] = test: Post-emergence herbicidal action against ALOMY
Outline: as §3

Amaranthus retroflexus [7] = test: Pre-emergence herbicidal action against AMARE; conditions: visual score after 3 weeks vs untreated controls
Outline: as §1

Matricaria inodora [8] = test: Pre-emergence herbicidal action against MATIN; conditions: visual score after 3 weeks vs untreated controls
Outline: as §1

Alopecurus myosuroides [9] = test: Pre-emergence herbicidal action against ALOMY; conditions: visual score after 3 weeks vs untreated controls
Outline: as §1

Echinochloa crus-galli [10] = test: Post-emergence herbicidal action against ECHCG; conditions: visual assessment about 3 weeks after treatment
Outline: as §3

Abutilon theophrasti [11] = test: Post-emergence herbicidal action against ABUTH
Outline: as §3

Matricaria inodora [12] = test: Post-emergence herbicidal action against MATIN; conditions: visual assessment about 3 weeks after treatment
Outline: as §3

Setaria viridis [13] = test: Pre-emergence herbicidal action against SETVI; conditions: 80 g/ha
Outline: as §1

Veronica persica [14] = test: Post-emergence herbicidal action against VERPE; conditions: visual assessment about 3 weeks after treatment
Outline: as §3

Viola tricolor [15] = test: Pre-emergence herbicidal action against VIOTR
Outline: as §1

Veronica persica [16] = test: Pre-emergence herbicidal action against VERPE
Outline: as §1

Avena fatua [17] = test: Pre-emergence herbicidal action against AVEFA; conditions: 80 g/ha; visual score after 3 weeks vs untreated controls
Text: as §2

Avena fatua [18] = test: Post-emergence herbicidal action against AVEFA; conditions: 20 g/ha, visual assessment about 3 weeks after treatment
Method: Seeds of monocotyledonous and dicotyledonous weed and crop plants are laid out in sandy loam soil in wood-fiber pots, covered with soil and cultivated in a greenhouse under good growth conditions. 2 to 3 weeks after sowing, the test plants are treated at the one-leaf stage. The compounds of the invention, formulated in the form of wettable powders (WP) or as emulsion concentrates (EC), are then sprayed onto the green parts of the plants in the form of an aqueous suspension or emulsion at a water application rate equivalent to 600 to 800 l/ha, with addition of 0.2% wetting agent. After the test plants have been left to stand in the greenhouse under optimal growth conditions for about 3 weeks, the action of the preparations is assessed visually in comparison to untreated controls (herbicidal action in percent (%): 100% activity=the plants have died, 0% activity=like control plants). […] The tables below illustrate, in an illustrative manner, the post-emergence herbicidal action of the compounds of the invention, the herbicidal activity being stated in percent.

| Compound | Pre-emergence action against ECHCG (Echinochloa crus-galli [1]) | Pre-emergence action against LOLRI (Lolium rigidum) | Post-emergence action against VIOTR in % (Viola tricolor [2]; 20 g/ha) | Post-emergence action against AMARE in % (Amaranthus retroflexus [3]; 5 g/ha) | Post-emergence action against AMARE in % (Amaranthus retroflexus [3]; 20 g/ha) | Pre-emergence action against ABUTH (Abutilon theophrasti [4]; 20 g/ha) | Pre-emergence action against ABUTH (Abutilon theophrasti [4]; 80 g/ha) | Post-emergence action against SETVI in % (Setaria viridis [5]; 20 g/ha) | Post-emergence action against ALOMY (Alopecurus myosuroides [6]; 5 g/ha) | Post-emergence action against ALOMY (Alopecurus myosuroides [6]; 20 g/ha) | Pre-emergence action against AMARE (Amaranthus retroflexus [7]; 20 g/ha) | Pre-emergence action against AMARE (Amaranthus retroflexus [7]; 80 g/ha) | Pre-emergence action against MATIN (Matricaria inodora [8]; 20 g/ha) | Pre-emergence action against MATIN (Matricaria inodora [8]; 80 g/ha) | Pre-emergence action against ALOMY (Alopecurus myosuroides [9]; 80 g/ha) | Post-emergence action against ECHCG in % (Echinochloa crus-galli [10]; 20 g/ha) | Post-emergence action against ABUTH (Abutilon theophrasti [11]; 5 g/ha) | Post-emergence action against ABUTH (Abutilon theophrasti [11]; 20 g/ha) | Pre-emergence action against SETVI (Setaria viridis [13]) | Pre-emergence action against VIOTR (Viola tricolor [15]; 80 g/ha) | further results |
| --- | --- | --- | --- | --- | --- | --- | --- | --- | --- | --- | --- | --- | --- | --- | --- | --- | --- | --- | --- | --- | --- |
| CN(CC(F)F)C(=O)c1c(C(F)F)ccc(C(=O)Nc2nnnn2C)c1Cl [Example 1-159] | 100% | 80% | 90% | 100% | 100% | 100% | 100% | 100% | 90% | 90% | 100% | 100% | 90% | 100% | 90% | 90% | 90% | 90% | 100% | 100% | Post-emergence action against PHBPU in % (Pharbitis purpurea): 90%; Pre-emergence action against POLCO (Polygonum convolvulus): 80%; Post-emergence action against VIOTR in % (Viola tricolor [2]; 5 g/ha): 80%; Post-emergence action against SETVI in % (Setaria viridis [5]; 5 g/ha): 100%; Pre-emergence action against ALOMY (Alopecurus myosuroides [9]; 20 g/ha): 90%; Post-emergence action against ECHCG in % (Echinochloa crus-galli [10]; 5 g/ha): 80%; Post-emergence action against MATIN in % (Matricaria inodora [12]; 5 g/ha): 80%; Post-emergence action against MATIN in % (Matricaria inodora [12]; 20 g/ha): 90%; Post-emergence action against VERPE in % (Veronica persica [14]; 5 g/ha): 80%; Post-emergence action against VERPE in % (Veronica persica [14]; 20 g/ha): 90%; Pre-emergence action against VERPE (Veronica persica [16]; 20 g/ha): 90%; Pre-emergence action against VERPE (Veronica persica [16]; 80 g/ha): 100%; Pre-emergence action against AVEFA (Avena fatua [17]): 80% |
| CN(C)C(=O)c1c(Br)ccc(C(=O)Nc2nnnn2C)c1Cl [Example 1-191] | 90% | 80% | – | 100% | 100% | 100% | 100% | 100% | 80% | 100% | – | 100% | 80% | 100% | 100% | 100% | 80% | 90% | 100% | 100% | Post-emergence action against AVEFA in % (Avena fatua [18]): 90%; Pre-emergence action against ALOMY (Alopecurus myosuroides [9]; 20 g/ha): 90%; Pre-emergence action against VERPE (Veronica persica [16]; 80 g/ha): 90%; Pre-emergence action against AVEFA (Avena fatua [17]): 90% |
| CCN(C)C(=O)c1c(Br)ccc(C(=O)Nc2nnnn2C)c1Cl [Example 1-192] | 80% | 80% | 80% | 100% | 100% | 80% | 100% | 100% | 90% | 100% | 80% | 100% | – | 100% | 100% | 100% | 90% | 90% | 100% | 100% | Post-emergence action against PHBPU in % (Pharbitis purpurea): 80%; Post-emergence action against SETVI in % (Setaria viridis [5]; 5 g/ha): 100%; Pre-emergence action against AVEFA (Avena fatua [17]): 80% |
| CCn1nnnc1NC(=O)c1ccc(C(F)F)c(C(=O)N(C)CC(F)F)c1Cl [Example 2-159] | 90% | 90% | 90% | 100% | 100% | 100% | 100% | 90% | – | – | 100% | 100% | 90% | 100% | 100% | 90% | 80% | 90% | 100% | 100% | Pre-emergence action against POLCO (Polygonum convolvulus): 90%; Post-emergence action against VIOTR in % (Viola tricolor [2]; 5 g/ha): 80%; Post-emergence action against AVEFA in % (Avena fatua [18]): 90%; Post-emergence action against MATIN in % (Matricaria inodora [12]; 5 g/ha): 80%; Post-emergence action against MATIN in % (Matricaria inodora [12]; 20 g/ha): 90%; Post-emergence action against VERPE in % (Veronica persica [14]; 20 g/ha): 80%; Pre-emergence action against VERPE (Veronica persica [16]; 80 g/ha): 80%; Pre-emergence action against AVEFA (Avena fatua [17]): 90% |
| CCN(C(=O)c1c(C(F)F)ccc(C(=O)Nc2nnnn2CC)c1Cl)C1CC1 [Example 2-167] | 90% | 80% | 100% | 100% | 100% | 100% | 100% | 90% | 80% | 100% | 100% | 100% | 100% | 100% | 100% | 90% | 90% | 90% | 100% | 100% | Post-emergence action against PHBPU in % (Pharbitis purpurea): 90%; Post-emergence action against AVEFA in % (Avena fatua [18]): 80%; Post-emergence action against SETVI in % (Setaria viridis [5]; 5 g/ha): 90%; Post-emergence action against MATIN in % (Matricaria inodora [12]; 20 g/ha): 80%; Post-emergence action against VERPE in % (Veronica persica [14]; 20 g/ha): 80%; Pre-emergence action against VIOTR (Viola tricolor [15]; 20 g/ha): 80% |
| CCN(C)C(=O)c1c(Br)ccc(C(=O)Nc2nnnn2CC)c1Cl [Example 2-192] | 90% | 80% | 100% | 100% | 100% | 100% | 100% | 100% | 80% | 100% | 100% | 100% | 100% | 100% | 100% | 100% | 80% | 80% | 100% | 100% | Post-emergence action against PHBPU in % (Pharbitis purpurea): 80%; Post-emergence action against AVEFA in % (Avena fatua [18]): 80%; Post-emergence action against SETVI in % (Setaria viridis [5]; 5 g/ha): 100%; Pre-emergence action against VERPE (Veronica persica [16]; 80 g/ha): 80%; Pre-emergence action against AVEFA (Avena fatua [17]): 80% |
